IC50 data for 25 compounds are collected here from patent publication US12077534B2, “Aza-heterobicyclic inhibitors of MAT2A and methods of use for treating cancer” (Les Laboratoires Servier SAS, priority 2018, dated 2024).

For one experiment, the target named is T1, MAT2A homodimer (Homo sapiens, UniProt P31153).
T1 construct: inferred from Ni sepharose purification and imidazole elution; made in house; host or cells: SF9 insect cells, recombinant baculovirus (Bac to Bac, pFASTBAC1)
Briefly: MAT2A biochemical assay (phosphate release, PiColorLock Gold). Conditions: recombinant MAT2A homodimer, 60 min pre-incubation, 25° C.; read-out: Enzyme Inhibition. The procedure: Mat2A protein was expressed by recombinant baculovirus in SF9 infected cells using the Bac to Bac system cloned into the pFASTBAC1 vector (Invitrogen, Carlsbad, CA). Recombinant MAT2A was isolated from the cell lysate of 150 g of infected cells using HP Ni sepharose column chromatography. Recombinant MAT2A homodimer was eluted with 250 and 500 mM imidazole, and fractions containing MAT2A were identified by sodium dodecyl sulfate polyacrylamide gel electrophoresis and pooled.
For determination of the inhibitory potency of compounds against the MAT2A homodimer, protein was diluted to 4 μg/mL in assay buffer (50 mM Tris, pH 8.0, 50 mM KCl, 15 mM MgCl2, 0.3 mM EDTA, 0.005% [w/v] bovine serum albumin [BSA]). Test compound was prepared in 100% dimethyl sulfoxide (DMSO) at 50× the desired final concentration. A 1 μL volume of compound dilution was added to 40 μL of enzyme dilution and the mixture was allowed to equilibrate for 60 minutes at 25° C. The enzymatic assay was initiated by the addition of 10 μL of substrate mix (500 μM ATP, pH 7.0, 400 μM L-methionine in 1× assay buffer), and the mixture was incubated for a further 60 minutes at 25° C. The reaction was halted and the liberated phosphate released by the enzyme in stoichiometric amounts by the production of S-adenosyl methionine (SAM) was measured using the PiColorLock Gold kit (Innova Biosciences, UK). Absolute product amounts were determined by comparison to a standard curve of potassium phosphate buffer, pH 8.0.

Experiment [1] concerns MAT2A activity (SAM) in HCT116 cells with deleted MTAP gene. Briefly: Cellular assay of target engagement (SAM) by LC-MS/MS. Format: cell-based. The settings on record: Homo sapiens, HCT-116; HCT116 MTAP −/−, 72 hrs; read-out: Cell 72 h SAM Inhibition (MTAP −/−). The procedure: Measurement of MAT2A activity in cells was made by direct quantitation of the abundance of the product of its enzymatic activity, SAM. Cancer cells were treated with candidate MAT2A inhibitors for a suitable incubation period, and the cells were then lysed using a reagent which quenched any further enzyme activity. Soluble metabolites including SAM were collected and SAM itself was directly measured from the lysate using quantitative LC-MS/MS.
A typical assay was performed using an HCT116 human colon carcinoma cell line which was genetically engineered to delete the MTAP gene (commercially available from Horizon Discovery). This cell line was utilized because it was determined that loss of the MTAP gene predicts sensitivity to MAT2A inhibitors. Cells were plated in 96-well dishes at appropriate cell density. Following 24 hours, cells were then treated with the candidate MAT2A inhibitor. Prior to addition to cells, the compound was first serially diluted in 100% DMSO, typically as a 3-fold serial dilution starting at 500× top dose with 10 dose points including DMSO only control. Compound was then transferred to a working stock plate in cell culture media by adding 5 μL of compound in DMSO to 495 μL of cell culture media. This working stock was then added to cells via a further 5-fold dilution, by adding 25 μL of working stock to 100 μL of cells in culture media. Following compound addition, cells were incubated at 37° C./5% CO2 for 72 hrs.
To quantitate SAM levels following compound treatment, cells were gently washed once in ammonium carbonate buffer (75 mM at pH 7.4), placed on dry ice, and lysed with metabolite extraction buffer (80% cold methanol and 20% water (v/v) with acetic acid at 1M final concentration with 200 ng/mL deuterated d3-SAM as internal control). Following centrifugation at 4° C. at 3,200 rpm for 30 minutes, the supernatant was collected and stored at −80° C. until analysis by Liquid Chromatography with tandem Mass Spectrometry (LC-MS/MS). LC-MS/MS analysis was performed using an API6500 Mass Spectrometer (Sciex, Framingham, MA, USA) operating in positive ion spray mode and equipped with a Waters UPLC Acquity (Waters, Milford, MA, USA) BEH Amide column. Multiple Reaction Monitoring data was acquired for SAM and the d3-SAM standard, using a mass transition pair at m/z 399.2→250.1 and 402.2→250.1, respectively. In a typical LC-MS/MS analysis, the initial flow rate was 0.5 ml/min of 25% mobile phase A (acetonitrile and water at 5:95 (v/v) with 1% formic acid and 10 mM ammonium acetate) and 75% mobile phase B (acetonitrile and water at 95:5 (v/v) with 1% formic acid and 10 mM ammonium acetate), 0.2-0.5 minutes with 75%-35% mobile phase B, 25%-65% mobile phase A, at 0.5 min 65% mobile phase A and 35% mobile phase B, 1.0-1.1 minutes with 35%-75% mobile phase B, 65%-25% mobile phase A, at 1.1 min 25% mobile phase A and 75% mobile phase B with a total run time of 1.5 minutes.

For another experiment, the system named is HCT116 MTAP−/−. Briefly: Inhibition of cellular proliferation (Cell Titer Glo), HCT116 MTAP-/-. Conditions: Homo sapiens, HCT-116, 96 h, 4 days, read-out: 4 Day Relative Growth Inhibition (MTAP −/−). Format: cell-based. The procedure:
(§1) Test compound impact on cancer cell growth was assessed by treating cancer cells with compound for 4 days and then measuring proliferation using an ATP-based cell proliferation readout (Cell Titer Glo, Promega Corporation).
(§2) In a typical assay an isogenic pair of HCT116 human colon carcinoma cell lines which vary only in MTAP deletion status (HCT116 MTAP+/+ and HCT116 MTAP−/−) were plated in 96-well dishes at appropriate cell density. Following 24 hours, cells were then treated with the candidate MAT2A inhibitor. Prior to addition to cells, the compound was first serially diluted in 100% DMSO, typically as a 3-fold serial dilution starting at 500× top dose with 10 dose points including DMSO only control. Compound was then transferred to a working stock plate in cell culture media by adding 5 μL of compound in DMSO to 495 μL of cell culture media. This working stock was then added to cells via a further 5-fold dilution, by adding 25 μL of working stock to 100 μL of cells in culture media. Following compound addition, cells were incubated at 37° C./5% CO2 for 4 days.
(§3) To measure inhibition of cellular proliferation, cells were allowed to equilibrate to room temperature for 30 minutes, and were then treated with 125 μL of Cell Titer Glo reagent. The plate was then covered with aluminum foil and shaken for 15 minutes to ensure complete mixing and full cell lysis. Luminescent signal was then measured using a plate-based luminometer Veritas version 1.9.2 using ATP standard curve to confirm assay reproducibility from run to run. This luminescence measure was converted to a proliferation index by subtracting from each data point the ATP luminescence signal measured from a bank (no cells) well and dividing by the ATP luminescence signal measured in 0.2% DMSO control well adjusted for signal in blank well. Compound activity was then represented as a percentage change in proliferation relative to a within-plate DMSO control against log 10 of compound concentration in molar (M) units.

The test system of the next experiment is HCT116 MTAP+/+. Put plainly: Inhibition of cellular proliferation (Cell Titer Glo), HCT116 MTAP+/+. The settings on record: Homo sapiens, HCT-116, 96 h, 4 days, read-out: 4 Day Relative Growth Inhibition (MTAP +/+). The format is cell-based. The procedure: as §1, §2, §3
On the technique in general: In ATP-based viability assays light output follows the ATP content of the culture.

T1 sequence (P31153 whole entry): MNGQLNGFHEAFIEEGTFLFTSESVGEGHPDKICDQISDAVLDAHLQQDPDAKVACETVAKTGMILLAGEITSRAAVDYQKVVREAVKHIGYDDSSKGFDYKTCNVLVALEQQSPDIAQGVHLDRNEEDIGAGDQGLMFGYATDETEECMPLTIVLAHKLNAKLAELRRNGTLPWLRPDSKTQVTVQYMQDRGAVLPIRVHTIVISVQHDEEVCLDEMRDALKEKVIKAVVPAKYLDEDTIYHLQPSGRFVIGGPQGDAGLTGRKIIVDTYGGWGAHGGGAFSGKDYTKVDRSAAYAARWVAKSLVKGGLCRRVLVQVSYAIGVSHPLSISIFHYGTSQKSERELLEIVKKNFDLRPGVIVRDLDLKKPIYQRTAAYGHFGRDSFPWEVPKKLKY

For `O=c1c(-c2ccc(C3CC3)cc2)c2nc(OCC(F)F)ccc2nn1-c1ccc2ncsc2c1` [Example 304], the IC50 at MAT2A homodimer was < 100 nM; in experiment [1], < 100 nM; in the experiment on HCT116 MTAP−/−, 100 to 1000 nM; in the experiment with HCT116 MTAP+/+, 100 to 1000 nM.

With `C#Cc1c(=O)n(-c2ccc3nn(C)cc3c2)nc2ccc(OCC(F)F)nc12` [Example 214, 6-(2,2-difluoroethoxy)-4-ethynyl-2-(2-methyl-2H-indazol-5-yl)pyrido[3,2-c]pyridazin-3(2H)-one], the IC50 was 100 to 1000 nM at MAT2A homodimer, > 1000 nM in experiment [1], ≥ 1000 nM with HCT116 MTAP−/− and ≥ 1000 nM in the experiment with HCT116 MTAP+/+.

In the case of `O=c1c(-c2ccc(OC(F)F)cc2)c2nc(OCC(F)F)ccc2nn1-c1cncs1` [Example 186], the IC50 on MAT2A homodimer lay in the range of 100 to 1000 nM.

Turning to `CN(C)c1ccc2nn(-c3ccc4nn(C)c(N(C)C)c4c3)c(=O)c(-c3ccc(OC(F)F)cc3)c2n1` [Example 204, 4-(4-(difluoromethoxy)phenyl)-6-(dimethylamino)-2-(3-(dimethylamino)-2-methyl-2H-indazol-5-yl)pyrido[3,2-c]pyridazin-3(2H)-one], the IC50 on MAT2A homodimer is < 100 nM.

In the case of `N#Cc1ccc(-n2nc3ccc(OCC(F)F)nc3c(-c3ccc(OC(F)F)cc3)c2=O)cc1` [Example 181], the IC50 on MAT2A homodimer fell in the range of 1000 to 10000 nM.

As for `CCNc1ccc2nn(-c3ccc4ncsc4c3)c(=O)c(-c3ccc(C4CC4)cc3)c2n1` [Example 311], the IC50 at MAT2A homodimer was < 100 nM.

As for `Cc1ccc(-c2c(=O)n(-c3ccc4nn(C)cc4c3)nc3ccc(NC4CC4)nc23)cn1` [Example 306], the IC50 at MAT2A homodimer was < 100 nM.

In the case of `COc1ccc(-c2c(=O)n(-c3ccc4nn(C)cc4c3)nc3ccc(NC4CC4)nc23)cn1` [Example 308], the IC50 on MAT2A homodimer was < 100 nM.

In the case of `[2H]C([2H])([2H])c1ccc(-c2c(=O)n(-c3ccc4nn(C)cc4c3)nc3ccc(NCC)nc23)cn1` [Example 320], the IC50 at MAT2A homodimer was < 100 nM.

`CCNc1ccc2nn(-c3ccc(=O)n(C)c3)c(=O)c(-c3ccc(C(F)F)nc3)c2n1` [Example 326]: on MAT2A homodimer, the IC50 is < 100 nM.

In the case of `[2H]C([2H])([2H])n1cc2cc(-n3nc4ccc(NCC)nc4c(-c4ccc(C)nc4)c3=O)ccc2n1` [Example 330], at MAT2A homodimer, the IC50 was < 100 nM.

On to `CNc1ccc(-n2nc3ccc(OCC(F)F)nc3c(-c3ccc(OC(F)F)cc3)c2=O)cc1` [Example 185], for which the IC50 on MAT2A homodimer fell in the range of 100 to 1000 nM.

For the compound `[2H]C([2H])([2H])n1cc2cc(-n3nc4ccc(NC([2H])([2H])C([2H])([2H])[2H])nc4c(-c4ccc(C)nc4)c3=O)ccc2n1` [Example 325], the IC50 at MAT2A homodimer was < 100 nM.

As to `[2H]C([2H])([2H])Oc1ccc(-n2nc3ccc(NCC(F)(F)F)nc3c(-c3ccc(C(F)F)nc3)c2=O)cc1` [Example 322, 4-(6-(difluoromethyl)pyridin-3-yl)-2-(4-(methoxy-d3)phenyl)-6-((2,2,2-trifluoroethyl)amino)pyrido[3,2-c]pyridazin-3(2H)-one], the IC50 at MAT2A homodimer was < 100 nM.

As for `Cn1cc(-n2nc3ccc(OCC(F)F)nc3c(-c3ccc(C(F)F)nc3)c2=O)ccc1=O` [Example 328], at MAT2A homodimer, the IC50 was in the range of 100 to 1000 nM.

With `CCNc1ccc2nn(-c3ccc4nn(C)cc4c3)c(=O)c(-c3ccc4[nH]cc(C#N)c4c3)c2n1` [Example 332, 5-(6-(ethylamino)-2-(2-methyl-2H-indazol-5-yl)-3-oxo-2,3-dihydropyrido[3,2-c]pyridazin-4-yl)-1H-indole-3-carbonitrile], the IC50 on MAT2A homodimer is < 100 nM.

As to `Cn1cc2cc(-n3nc4ccc(N5CCC5)nc4c(-c4ccc(OC(F)F)cc4)c3=O)ccc2n1` [Example 164], the IC50 on MAT2A homodimer is 100 to 1000 nM.

`Cn1cc2cc(-n3nc4ccc(OCC(F)F)nc4c(C#C[Si](C)(C)C)c3=O)ccc2n1` [Example 213, 6-(2,2-difluoroethoxy)-2-(2-methyl-2H-indazol-5-yl)-4-((trimethylsilyl)ethynyl)pyrido[3,2-c]pyridazin-3(2H)-one]: the IC50 at MAT2A homodimer is 100 to 1000 nM; in the experiment with HCT116 MTAP−/−, ≥ 1000 nM; in the experiment on HCT116 MTAP+/+, ≥ 1000 nM.

In the case of `Cn1cc(-n2nc3ccc(NCC(F)(F)F)nc3c(-c3ccc(C(F)F)nc3)c2=O)ccc1=O` [Example 329], the IC50 at MAT2A homodimer is 100 to 1000 nM.

In the case of `CCNc1ccc2nn(-c3ccc4nn(C)cc4c3)c(=O)c(-c3ccc(C4CC4)cc3)c2n1` [Example 312], the IC50 at MAT2A homodimer is < 100 nM.

As to `COc1ccc(-n2nc3ccc(OCC(F)(F)F)nc3c(-c3ccc(Cl)cc3)c2=O)cc1` [Example 118], on MAT2A homodimer, the IC50 is 100 to 1000 nM.

As to `O=c1c(-c2ccc(OC(F)F)cc2)c2nc(OCC(F)F)ccc2nn1-c1ccc(Cl)cc1` [Example 190], the IC50 at MAT2A homodimer was in the range of 1000 to 10000 nM.

Turning to `[2H]C([2H])([2H])C([2H])([2H])Nc1ccc2nn(-c3ccc4nn(C)cc4c3)c(=O)c(-c3ccc(C(F)F)nc3)c2n1` [Example 324], the IC50 at MAT2A homodimer is < 100 nM.

`Cn1cc2cc(-n3nc4ccc(OCC5CC5(F)F)nc4c(-c4ccc(C5CC5)nc4)c3=O)ccc2n1` (stereo not drawn) [Example 314]: the IC50 at MAT2A homodimer is < 100 nM.

`O=C1CCC(n2nc3ccc(OCC(F)F)nc3c(-c3ccc(OC(F)F)cc3)c2=O)CC1` [Example 216, 6-(2,2-difluoroethoxy)-4-(4-(difluoromethoxy)phenyl)-2-(4-oxocyclohexyl)pyrido[3,2-c]pyridazin-3(2H)-one]: at MAT2A homodimer, the IC50 lay in the range of 100 to 1000 nM.
